Key:
Format in all cases: biochemical
c-myc-PIP5K Iα = c-myc-PIP5K Iα (Homo sapiens, UniProt Q99755); experiment: activation of DP-PI; details: activator; 20 μM DP-PI(4)P, 50 μM PA, 50 μM ATP
3×HA-DGKα [1] = biological target: 3×HA-DGKα (Homo sapiens, UniProt P23743); experiment: […]-ATP phosphorylation in Triton X-100 mixed micelles, COS-7 lysate; details: 0.1 mM ATP, 5 mM MgCl2, pH 7.5, 25 °C; DOPS in micelles; surface mole percent
3×HA-DGKα [2] = biological target: 3×HA-DGKα (Homo sapiens, UniProt P23743, V656L); experiment: as above; details: 0.1 mM ATP, 5 mM MgCl2, pH 7.5, 25 °C; DOPS in micelles; surface mole percent
Sequence of 3×HA-DGKα (Homo sapiens, UniProt P23743, V656L) (P23743 whole entry V656L): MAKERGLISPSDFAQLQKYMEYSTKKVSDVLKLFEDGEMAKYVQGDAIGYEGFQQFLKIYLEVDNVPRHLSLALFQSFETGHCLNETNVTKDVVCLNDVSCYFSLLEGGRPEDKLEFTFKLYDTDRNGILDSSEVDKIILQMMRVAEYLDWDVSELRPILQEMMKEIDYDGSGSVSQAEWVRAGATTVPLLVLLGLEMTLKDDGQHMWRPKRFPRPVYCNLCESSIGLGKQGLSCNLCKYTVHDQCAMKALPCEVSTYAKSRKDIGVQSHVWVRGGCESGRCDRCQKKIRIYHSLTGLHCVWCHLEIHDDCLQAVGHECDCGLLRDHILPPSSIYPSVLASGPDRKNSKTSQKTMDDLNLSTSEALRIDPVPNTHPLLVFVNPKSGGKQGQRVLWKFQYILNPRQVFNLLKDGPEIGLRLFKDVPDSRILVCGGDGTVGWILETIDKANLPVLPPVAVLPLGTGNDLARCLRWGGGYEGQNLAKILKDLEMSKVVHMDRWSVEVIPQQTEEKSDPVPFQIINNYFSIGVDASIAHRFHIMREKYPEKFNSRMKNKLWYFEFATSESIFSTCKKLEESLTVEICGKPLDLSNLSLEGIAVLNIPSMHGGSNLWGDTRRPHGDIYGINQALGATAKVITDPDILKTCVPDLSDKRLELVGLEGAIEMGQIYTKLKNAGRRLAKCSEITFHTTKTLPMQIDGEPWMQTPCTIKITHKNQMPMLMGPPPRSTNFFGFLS

Sequence of 3×HA-DGKα (Homo sapiens, UniProt P23743) (P23743 whole entry): as the sequence (P23743 whole entry V656L) above, with L656V counted along it
Sequence of c-myc-PIP5K Iα (Q99755 whole entry): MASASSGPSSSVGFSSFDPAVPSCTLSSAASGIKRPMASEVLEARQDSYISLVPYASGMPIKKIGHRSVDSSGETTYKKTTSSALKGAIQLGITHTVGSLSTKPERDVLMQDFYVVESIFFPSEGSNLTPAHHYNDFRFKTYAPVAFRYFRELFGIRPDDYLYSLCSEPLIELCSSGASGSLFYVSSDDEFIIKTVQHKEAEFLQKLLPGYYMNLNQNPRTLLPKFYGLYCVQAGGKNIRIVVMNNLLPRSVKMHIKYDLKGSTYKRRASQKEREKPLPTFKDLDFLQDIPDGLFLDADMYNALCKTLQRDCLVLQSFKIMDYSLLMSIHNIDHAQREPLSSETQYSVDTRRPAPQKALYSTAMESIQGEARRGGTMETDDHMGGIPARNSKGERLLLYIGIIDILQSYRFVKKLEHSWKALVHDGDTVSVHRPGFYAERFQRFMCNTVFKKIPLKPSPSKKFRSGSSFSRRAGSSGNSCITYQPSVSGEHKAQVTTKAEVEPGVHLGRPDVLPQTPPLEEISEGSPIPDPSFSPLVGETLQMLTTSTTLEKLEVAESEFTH

CCCCC/C=C\C/C=C\C/C=C\C/C=C\CCCC(=O)OC[C@H](COP(=O)(O)O)OC(=O)CCC/C=C\C/C=C\C/C=C\C/C=C\CCCCC [DAPA, 1,2-Diarachidonoyl phosphatidic acid]
fold activation (c-myc-PIP5K Iα): 12 fold

CCCCC/C=C\C/C=C\C/C=C\C/C=C\CCCC(=O)O[C@@H](CO)COC(=O)CCCCCCCCCCCCCCCCC [SAG, 1-Stearoyl-2-arachidonoyl-sn-glycerol]
Km, mol% (3×HA-DGKα [1]): 2.1 ± 0.4 mol% | Km, mol% (3×HA-DGKα [2]): 1.8 ± 0.3 mol%

CCCCC/C=C\C/C=C\CCCCCCCC(=O)O[C@@H](CO)COC(=O)CCCCCCCCCCCCCCCCC [SLG, 1-Stearoyl-2-linoleoyl-sn-glycerol]
Km, mol% (3×HA-DGKα [1]): 2.8 ± 0.3 mol% | Km, mol% (3×HA-DGKα [2]): 1.5 ± 0.4 mol%

From publication PMC3095698 (Journal of molecular biology, 2011)
